How the values were obtained:
BAX = BAX apoptotic protein in myocardium after I/R (Western blot); format: in vivo, mouse (C57BL/6); conditions: ML264-treated group; 30 min ischemia, 2 h reperfusion
Experimental: The myocardial ischemia/reperfusion surgical protocol was applied as follows. Mice were anesthetized with 2% isoflurane inhalation until anesthesia was achieved. The animals' body temperature was maintained at 37 °C throughout the surgical procedure using a heating pad. A tracheal tube was placed via tracheal intubation and the respiration rate was set at 150 strokes/min with a tidal volume of 200 μL, using Minivent ventilator for mice (Model 845, Harvard Apparatus). A 1.2 cm incision was made over the left chest. After retraction of the pectoral major and minor muscles, the fourth intercostal space was exposed. […] The left anterior descending coronary artery (LAD) was then located, sutured, and ligated at a site 3-4 mm distal to the origin of the artery under the left atrium using a 6-0 silk suture. […] The mouse was then monitored during the recovery period, which was generally completed within 3 to 5 minutes. […]
Isolated myocardial tissue/isolated primary murine cardiomyocytes were homogenized in radioimmunoprecipitation assay buffer (RIPA buffer) containing protease and phosphatase inhibitors (Thermo Fischer Scientific, Cat. No.: A32959). […] Relative densitometry was determined, and the β-actin protein was used as a loading control.
In order to unravel the mechanisms of KLF5-mediated cardiotoxicity, oxidative stress levels were evaluated at early reperfusion. […]

IL-1β = IL-1β mRNA in ischemic myocardium; format: in vivo, mouse (C57BL/6); conditions: evaluated at 2 h and 24 h of reperfusion, vs vehicle
Experimental: (§1) The myocardial ischemia/reperfusion surgical protocol was applied as follows. Mice were anesthetized with 2% isoflurane inhalation until anesthesia was achieved. The animals' body temperature was maintained at 37 °C throughout the surgical procedure using a heating pad. A tracheal tube was placed via tracheal intubation and the respiration rate was set at 150 strokes/min with a tidal volume of 200 μL, using Minivent ventilator for mice (Model 845, Harvard Apparatus). A 1.2 cm incision was made over the left chest. After retraction of the pectoral major and minor muscles, the fourth intercostal space was exposed. […] The mouse was then monitored during the recovery period, which was generally completed within 3 to 5 minutes. […]
(§2) Total RNA was purified from heart tissue using the TRIzol reagent according to the instructions of the manufacturer (ThermoFischer Scientific, Cat. No.: 15596018). cDNA synthesis was performed using the Applied Biosystems High Capacity cDNA Reverse Transcription Kit (ThermoFischer Scientific, Cat. No.: 4368814) from 500 ng RNA, which had been treated with DNAase I (ThermoFischer Scientific, Cat. No.: 18068015). Quantitative real-time PCR was performed with the SYBR Select Master Mix (ThermoFischer Scientific, Cat. No.: 4472903) using the manufacturer's recommendations. […]

Glut4 = Glut4 mRNA after I/R; format: in vivo, mouse; conditions: ML-264 treatment; vs I/R group treated with vehicle
Experimental: as §1, §2

TNFα = TNFα mRNA in ischemic myocardium; format: in vivo, mouse (C57BL/6); conditions: evaluated at 2 h and 24 h of reperfusion, vs vehicle
Experimental: as §1, §2

Ugp = Ugp mRNA expression after I/R; format: in vivo, mouse; conditions: ML-264 treatment
Experimental: as §1, §2

**Q.** With `CN(C(=O)CNC(=O)/C=C/c1cccc(Cl)c1)C1CCS(=O)(=O)CC1` [ML264] as the compound, how does the BAX apoptotic proteins (BAX) read?
**A.** suppression

**Q.** What about the “IL-1β mRNA levels” value (IL-1β) of the same compound?
**A.** Significant suppression

**Q.** And the “Glut4 mRNA levels” value (Glut4)?
**A.** significant suppression

**Q.** What about the “TNFα mRNA levels” value (TNFα) of the same compound?
**A.** Significant suppression

**Q.** And the “relative mRNA expression of Ugp” value (Ugp)?
**A.** did not result in a change

— US20260335279A1, “METHODS OF TREATING ISCHEMIA-REPERFUSION INJURIES” (University of Cincinnati, priority 2022, published 2026)
